Measurements: patent publication US20100113599A1, “AMPHIPATHIC CARBOXYLATES FOR THE TREATMENT OF IMMUNE-RELATED DISORDERS” (Syndromex Ltd. c/o Yissum Research Development Company, of, priority 2007, published 2010)

Test system: U266 cells
Experiment: Growth of Multiple Myeloma U266 cells, Trypan Blue exclusion
Format: cell-based
Details: 200 μM, day 6
Description: Growth Suppression by M16αα of Multiple Myeloma (MM) cells. MM cells were incubated in RPMI 1640 medium in the presence of added M16αα as indicated. Cell number was determined daily by Trypan Blue exclusion.
The inhibitory effect of MEDICA drugs on colon tumor cell proliferation, presumably via activation of apoptosis, encouraged the inventors to further investigate the potential beneficial effect of these compounds on other malignancies. The inventors therefore next examined the effect of the MEDICA drugs using the Multiple myeloma model. U-266 and RPMI-8226 cell lines served as cell models for MM. MM cells were incubated in RPMI 1640 medium in the presence of M16αα as indicated. Cell number was determined daily by Trypan Blue exclusion assay. […] It should be noted that generally, these cells were more sensitive even to lower concentrations of M16αα.

CC(C)(CCCCCCCCCCCCC(C)(C)C(=O)O)C(=O)O [M16αα, 2,2,15,15-tetramethyl-hexadecanedioic acid]
cell proliferation: complete inhibition
